B1: GST-EC5 fusion protein: purified GST fusion protein carrying the EC5 domain of E-cadherin (protein)
chain: IPEPRTIFFCERNPKPQVINIIDADLPPNTSPFTAELTHGASANWTIQYNDPTQESIILKPKMALEVGDYKINLKLMDNQNKDQVTTLEVSVCDCEGAAGVCRK
modifications: left off: a dimerising Fc or GST
notes: purified GST fusion protein carrying the EC5 domain of E-cadherin

Experiments:
[1] = system: HCT116; assay: Real-time quantitative PCR (qPCR) of HCT116; format: cell-based, human; settings: for inhibition of activation of inflammatory genes, mRNA / inhibition of activation of tumor growth genes (Wnt, oncogenes), mRNA: FadAc, 2 hrs incubation
Protocol: (§1) Total RNA was extracted from CRC cells, xenografts, or clinical specimens. cDNA synthesis and RT-PCR were performed as previously described, using primers listed in Table 1. Data were analyzed by the ΔΔCt method and normalized to the GAPDH or Fn-specific 16S rRNA. To quantify the fadA gene copies, plasmid carrying fadA was serially diluted to 10^2-10^8 fadA copies/μl and used to generate standard curves for Ct values. The fadA gene copies in the clinical samples were calculated based on the standard curves. Each experiment was performed in triplicates and repeated at least three times.

[2] = system: E-cadherin-mediated cellular signaling in HCT116; assay: Subcellular fractions of HCT116, Western blot; format: cell-based, human; settings: 50 μM inhibitor pre-incubated 1 hour, FadAc
Description: The following antibodies were used: anti-FadA monoclonal antibody (mAb) 5G11-3G8 (Xu et al., 2007), mAb anti-CDH1 (Abcam or Cell Signaling Tech), polyclonal anti-phospho-CDH1 (ECM Biosciences), mAb anti-GAPDH (Invitrogen), mAb anti-β-catenin (R&D systems), polyclonal anti-phospho-β-catenin (Cell Signaling Tech), mAb anti-LEF/TCF1 (Invitrogen), mAb anti-NFkB (Invitrogen), mAb anti-Myc (Cell Signaling Tech), mAb anti-cyclin D1 (Cell Signaling Tech), mAb anti-EGFR (Cell Signaling Tech), mAb anti-GAPDH (Cell Signaling Tech), mAb anti-PCNA (Cell Signaling Tech), polyclonal goat-anti-mouse or goat-anti-rabbit secondary antibody conjugated with horseradish peroxidase (HRP) (Pierce Biotechnology). Peptides were synthesized by Neo Group, Inc (Cambridge, Mass.). Western blot analyses were performed as previously described.
Cells were incubated with 1 mg/ml of FadAc or mFadA followed by the extraction of subcellular fractions. When indicated, 50 μM of the corresponding protein tyrosine kinase inhibitor (Genistein) and clathrin inhibitor (Pitstop2) were pre-incubated with cells for 1 hour. Membrane, cytosolic and nuclei fractions were prepared using the Compartmental Protein Extraction kit (Millipore) according to the manufacturer's instructions.

[3] = system: Fn; assay: Tissue culture invasion assay, Fn into HCT116; format: cell-based, Fusobacterium nucleatum; settings: for inhibition of Fn invasion of HCT116: MOI 50, 4 hrs
Protocol: (§2) Cells were seeded in 24-well or 96-well plates at 8×10^4 cells or 2.5×10^4 cells per well in the growth medium and grown to 100% confluent. Bacteria were added to the cells at a multiplicity of infection (MOI) of 50. Following 1 hr incubation at 37° C. in 5% CO2, the monolayers were washed 3 times with D-PBS, pH 7.1, supplemented with Ca^2+ and Mg^2+. Cells were lyzed with water for 20 min at 37° C. Serial dilutions of the lysates were plated onto blood agar plates to enumerate the total cell-associated bacteria. For invasion assays, the bacteria were incubated with the monolayers at 37° C. for 4 hrs, followed by washes with PBS. Fresh media containing 300 μg/ml gentamicin and 200 μg/ml metronidazole were added to the monolayers and incubated for an additional hour to kill extracellular bacteria. The cells were then washed and lyzed with water as described above. The levels of attachment and invasion were expressed as the percentage of bacteria recovered following cell lysis relative to the total number of bacteria initially added. Each experiment was performed in triplicates and repeated at least twice.

[4] = system: Fn; assay: Tissue culture attachment assay, Fn on HCT116; format: cell-based, Fusobacterium nucleatum; settings: for inhibition of Fn attachment of HCT116: MOI 50, 1 hr
Protocol: as §2

[5] = system: HCT116 xenografts; assay: qPCR of HCT116 xenografts; format: in vivo, mice; settings: FadAc or wild-type Fn
Protocol: (§3) The animal protocol was approved by the Case Western Reserve University Institutional Animal Care and Use Committee. An inoculum of 5×10^6 cells were injected s.c. and bilaterally into 4- to 6-week-old female nude mice (5 per group) as previously described. The mice were randomized to receive one of the following: FadAc or mFadA (each at 80 μg), BSA (0.01 μmol, i.e., 660 μg), or peptide (0.01 μmol), or bacteria at 1×10^7 cfu, at each inoculation site.
as §1

[6] = system: Fusobacterium nucleatum (Fn); assay: Fn invasion of endothelial cells; format: cell-based; settings: FIG. 8
Protocol: as §2

[7] = system: Fusobacterium nucleatum (Fn); assay: Fn attachment of endothelial cells; format: cell-based; settings: FIG. 8
Protocol: as §2

[8] = system: Fn; assay: Immunohistochemical staining of Fn-infected HCT116 xenografts; format: in vivo, Fusobacterium nucleatum; settings: wild-type Fn injected into HCT116 xenografts
Protocol: Immunofluorescent staining of cells was performed as previously described. Mouse anti-β-catenin mAb and Alexa Fluor 634-conjugated goat anti-mouse polyclonal antibodies were used. IHC analysis of xenograft tumors were performed as previously described, using rabbit anti-Fn polyclonal antibodies. Pre-immune serum from the same rabbit was used as control.
as §3

[9] = system: HCT116; assay: Cell proliferation assay, HCT116; format: cell-based, human; settings: bacteria at MOI 1000:1
Protocol: (§4) CRC cells were seeded in 24-well plates at 1×10^4 cells per well in the growth medium. Cells were untreated, or incubated with FadAc or peptides at indicated concentration, or with bacteria at a multiplicity of infection (MOI) of 1000:1. Cell numbers were counted at 24-hour intervals using a hemocytometer. Each experiment was performed in triplicates and repeated at least twice.

[10] = system: RKO cells transfected with CDH1; assay: Cell proliferation assay, RKO cells transfected with CDH1; format: cell-based, human; settings: bacteria at MOI 1000:1
Protocol: CDH1 transfections were performed as previously described. siRNA assays were performed using the FlexiTube siRNA anti-CDH1 or anti-beta-catenin reagent and All Stars FlexiTube Control siRNA from Qiagen (Valencia, Calif.) according the manufacturer's instructions.
as §4

[11] = system: HCT116 xenografts; assay: HCT116 xenograft tumor growth in nude mice; format: in vivo; settings: 0.01 μmol peptide with FadAc
Protocol: as §3

Row | Molecule | inhibition of activation of inflammatory genes, mRNA [1] | inhibition of activation of tumor growth genes (Wnt, oncogenes), mRNA [1] | effect of inhibitor on CRT activation (β-catenin translocation, LEF/TCF, Wnt and oncogenes) [2] | effect of inhibitor on E-cadherin phosphorylation [2] | effect of inhibitor on FadA and E-cadherin internalization [2] | effect of inhibitor on FadA binding to the membranes [2] | effect on Fn-stimulated expression of NF-kappaB and cytokines IL-6, 8, and 18 ([1]; wild type Fn) | inhibition of Fn invasion of HCT116 [3] | effect of inhibitor on NF kappaB activation [2] | inhibition of Fn attachment of HCT116 [4] | inhibition of stimulation of tumor growth genes and inflammatory genes in xenografts [5] | block of Fn invasion of endothelial cells [6] | block of Fn attachment of endothelial cells [7] | prevention of Fn invasion into tumor tissues [8] | inhibition of Fn-stimulated HCT116 growth [9] | suppression of Fn growth stimulation of CDH1-transfected RKO cells [10] | effect of peptide on FadAc-stimulated tumor growth [11] | concentration of maximum inhibition of Fn invasion of HCT116 [3] [µM] | concentration of maximum inhibition of Fn attachment of HCT116 [4] [µM]
1 | O=c1c(-c2ccc(O)cc2)coc2cc(O)cc(O)c12 [Genistein] | inhibited | inhibited | abolished | prevented | prevented | abolished | – | – | – | – | – | – | – | – | – | – | – | – | –
2 | O=C1NC(=NS(=O)(=O)c2cccc3ccccc23)S/C1=C\c1ccc(Br)cc1 [Pitstop2] | only inhibited the inflammatory genes | not | unaffected | did not affect | inhibited | did not affect | abolished | prevented | no NF kappaB activation was observed | without affecting attachment | – | – | – | – | – | – | – | – | –
3 | ASANWTIQYND [inhibitory peptide] | – | – | – | – | – | – | – | minimum required | – | minimum required | inhibited | block | block | prevented | inhibited | diminished | No increase was detected | – | –
4 | B1 | – | – | – | – | – | – | – | inhibited by purified GST-EC5 fusion protein in a dose-dependent manner | – | inhibited by purified GST-EC5 fusion protein in a dose-dependent manner | – | – | – | – | inhibited | diminished | – | 0.1 | 0.1
